The values below are quoted from earlier work in patent US20070078263A1, “BIARYL SUBSTITUTED HETEROCYCLE INHIBITORS OF LTA4H FOR TREATING INFLAMMATION” (deCODE Chemistry, Inc., priority 2005, published 2007).

One data set relates to primate model. As to conditions: eight weeks of treatment; cited from earlier work.
For data set [1], the system named is ionophore-induced LTB4 production. Particulars: oral administration; cited from earlier work.
Data set [2] has the same test system. As to conditions: oral administration; cited from earlier work. The source holds these as a separate data set.

Turning to `CN(CCCOc1ccc(Cc2ccccc2)cc1)CCC(=O)O.Cl` [SC57461], in the data set with primate model, the “colitis symptoms in a primate model” value was “significantly improved colitis symptoms”. The “inhibition of ionophore-induced LTB4 production in mouse blood ex vivo” value in data set [1] is “inhibition of ionophore-induced LTB4 production”. For the same compound, the “inhibition of ionophore-induced LTB4 production in rat peritoneum in vivo” value in data set [2] is “inhibition of ionophore-induced LTB4 production”.
